Legend:
cancer cell lines = conditions: cytotoxicity SAR; cited from earlier work
[1] = system: NCI H-460 human lung tumor cells; assay: Cytotoxicity in NCI H-460 human lung tumor cells, MTT reduction; type: cell-based
Method: Cytotoxicity was measured in NCI H-460 human lung tumor cells with cell viability being determined by MTT reduction.^[23] Cells were seeded in 96-well plates at 6000 cells/well in 180 μL of medium. After 24 h, the test chemicals were dissolved in DMSO and diluted into medium without fetal bovine serum and then added at […]. DMSO was less than 0.5% of the final concentration. After 48 h, the medium was removed and cell viability determined.

Row | Compound | activity compared to apratoxin A (cancer cell lines) | loss of activity compared to apratoxin A (cancer cell lines) | further results
1 | CC[C@H](C)[C@H]1C(=O)N2CCC[C@H]2C(=O)O[C@H]([C@@H](C)CC(C)(C)C)C[C@@H](C)C[C@H](O)[C@H](C)C2=N[C@@H](/C=C(\C)C(=O)N[C@@H](Cc3ccc(OC)cc3)C(=O)N(C)[C@@H](C)C(=O)N1C)CS2 [apratoxin D] | roughly equivalent activity |  | 
2 | CC[C@H](C)[C@H]1C(=O)N2CCC[C@H]2C(=O)O[C@H](C(C)C)C[C@@H](C)C[C@H](O)[C@H](C)C2=N[C@@H](/C=C(\C)C(=O)N[C@@H](Cc3ccc(OC)cc3)C(=O)N(C)[C@@H](C)C(=O)N1C)CS2 [apratoxin C] |  | 2 fold | 
3 | (E)-34,35-dehydro-apratoxin A |  | 72-230 fold | 
4 | COc1ccc(C[C@@H]2NC(=O)/C(C)=C/C3CSC(=N3)[C@@H](C)[C@@H](O)C[C@H](C)C[C@@H](C(C)(C)C)OC(=O)[C@H](C)N(C)C(=O)[C@H](C(C)C)N(C)C(=O)[C@H](C)N(C)C2=O)cc1 (stereo partly shown) [apratoxin G] |  |  | IC50 ([1]; H-460 cancer cells, MTT, 48 h): 14 nM; reduction in activity compared to apratoxin F ([1]; N-methyl isoleucine exchanged for N-methyl valine): 7 fold
5 | apratoxin E | only a modest loss of activity |  | 
6 | CC[C@H](C)[C@@H]1NC(=O)[C@H](C)N(C)C(=O)[C@H](Cc2ccc(OC)cc2)NC(=O)/C(C)=C/[C@H]2CSC(=N2)[C@@H](C)[C@@H](O)C[C@H](C)C[C@@H](C(C)(C)C)OC(=O)[C@@H]2CCCN2C1=O [apratoxin B] |  | 30 to 40 fold | 

From patent publication US8598313B2, “Compositions for ameliorating cell proliferative disorders and methods of making and using them” (priority 2010, dated 2013)
